From patent publication US11192903B2, “Zirconium-89 oxine complex as a cell labeling agent for positron emission tomography” (The United States of America, as represented by the …, priority 2014, dated 2021)
Like-named read-outs stand apart in the source and are kept apart here.

What was measured:
DCs = tested on: DCs
Procedure: (§1) After ^89Zr-oxine complex labeling, DCs were stimulated with LPS (5 ng/ml) overnight. CD8 T cells labeled with ^89Zr-oxine complex were stimulated with plate coated anti-CD3 antibody (10 μg/ml) and anti-CD28 antibody (5 μg/ml) for 3 days, then transferred to an antibody-free culture supplemented with human IL-15 (3 nM).
(§2) CTLs, both labeled and unlabeled, were activated by plate coated anti-CD3 antibody (10 μg/ml) and anti-CD28 antibody (5 μg/ml) for 1.5 day and expression of CD3, CD8, CD44, CD25, CD69, INF-γ and IL-2 which was evaluated by flow cytometry. Bone marrow-derived DCs on day 6 of culture with or without ^89Zr-oxine complex labeling were stimulated with LPS (1 ng/ml) overnight and surface expression of CD11c, CD80, CD86, CD40, MHC class I and MHC class II was examined. In another experiment, ^89Zr-labeled DCs were stimulated with LPS in the presence of OVA overnight, transferred to Rag1KO mice expressing Ly5.2 (2 million cells) pre-injected with CMFDA labeled OT-1 CD8 T cells expressing Ly5.1. Peripheral blood and splenocytes were collected 3.5 days later and dilution of CMFDA in OT-1 T cells was analyzed using flow cytometry gated on Ly5.1+ CD8 T cells.

BM cells [1] = tested on: BM cells
Procedure: The surface expressions of CD117, sca-1 and lineage markers (CD3, NK1.1, Ly6G, CD2, CD5 and B220) on BM cells were examined before and after ^89Zr-oxine labeling (3.15 kBq/2×10^6) and analyzed by flow cytometry using a FACS Calibur flow cytometer (Becton Dickinson, San Jose, Calif.) and analyzed using FlowJo software (Tree Star, Inc., Ashland, Oreg.). BM cell differentiation capability was examined by culturing the ^89Zr-labeled and non-labeled cells with GM-CSF (20 ng/ml) and IL-15 (25 nM) for differentiation to DCs and NK/NK-T cells (n=3). On day 10, the cells were harvested, stained with anti-CD11c, CD86, and NK1.1 antibodies, and analyzed on flow cytometry. For the GM-CSF culture, cell associated-^89Zr activity and cell number were also examined.

CTLs [2] = settings: TCR stimulation
Procedure: as §2
CTLs were TCR stimulated after the ^89Zr-oxine complex labeling.

CTLs [3] = settings: TCR stimulation then withdrawal, vs non-labeled
Procedure: as §1

BM cells [4] = tested on: BM cells; remark: listed apart in the source
Procedure: BM cells were incubated with 11.0-55.5 kBq/10^6 cells of ^89Zr-oxine complex in PBS at 25:1 volume ratios for 20 minutes, washed twice in RPMI media and transferred to a new tube. […] To determine cell viability and retention of ^89Zr after the labeling, BM cells were labeled with 2 different radioactivity doses, 28.12 kBq/10^6 and 8.14 kBq/10^6 cells, and cultured with SCF, FLT3L and TPO (100 ng/ml each). The number of live cells was counted using 0.4% trypan blue dye (Life Technologies) at 0 h, 2 d, 4 d, and 7 d (n=3). At each time point, the cell suspension was spun to separate the supernatant and the cell pellet, and the radioactivity of both fractions was measured by a γ-counter (WIZARD^2 automatic gamma-counter, Perkin Elmer, Waltham, Mass.).

CXCR4 = CXCR4 (Mus musculus, UniProt P70658); settings: at 2 h; plerixafor 5 mg/kg i.v. 15 min before cell transfer
Sequence of CXCR4 (P70658 whole entry): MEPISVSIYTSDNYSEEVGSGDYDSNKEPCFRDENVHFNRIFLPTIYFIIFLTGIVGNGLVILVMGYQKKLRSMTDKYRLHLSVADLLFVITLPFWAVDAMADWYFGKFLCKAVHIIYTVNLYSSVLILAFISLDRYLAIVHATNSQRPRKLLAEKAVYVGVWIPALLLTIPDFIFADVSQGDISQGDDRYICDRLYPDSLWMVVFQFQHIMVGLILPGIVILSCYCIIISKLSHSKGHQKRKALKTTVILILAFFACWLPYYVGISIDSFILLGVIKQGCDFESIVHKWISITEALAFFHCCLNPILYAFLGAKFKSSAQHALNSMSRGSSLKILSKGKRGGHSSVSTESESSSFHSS
Procedure: A CXCR4 inhibitor, plerixafor (Adooq Bioscience, Irvine, Calif.), was used to interrogate the role of CXCR4 in BM cell migration (n=4). Mice received an i.v. injection of plerixafor (5 mg/kg) 15 min before and 1 day after the ^89Zr-oxine labeled BM cell transfer (331 kBq/2×10^7 cells). Another group of mice received concurrent i.v. injections of G-CSF (2.5 μg, n=4). Deferoxamine was injected intramuscularly 15 min before and 1, 2, 3 and 4 hr after the cell injection. Serial microPET/CT images were acquired.

| SMILES | antigen presentation to OT-1 T cells in vivo (DCs; labeled DCs stimulated with LPS and OVA, injected into mice, flow cytometry 4 days after transfer) | expression of B7 molecules, CD80 and CD86, on DCs (DCs; prior to LPS activation) | capacity to proliferate and differentiate (BM cells [1]; 10 day culture with GM-CSF or IL-15) | expression of CD117, sca-1 and lineage markers (BM cells [1]; BM cells, 3.15 kBq/2×10^6) | production of IFNγ and IL-2 (CTLs [2]) | upregulation of CD69, CD25 and CD44 markers (CTLs [2]; labeled vs non labeled CTLs) | proliferation and contraction of labeled CTLs (CTLs [3]) | live cell number (BM cells [4]; BM cells labeled at 8.14 kBq/10^6 cells) | live cell number (BM cells [4]; BM cells labeled at 28.12 kBq/10^6 cells) | suppression of the proliferation (BM cells [4]; BM cells, lower labeling dose (8.14 kBq/10^6 cells), vs non-labeled control) | migration of labeled cells to the BM (CXCR4) |
| --- | --- | --- | --- | --- | --- | --- | --- | --- | --- | --- | --- |
| c1cnc2c([O][89Zr]([O]c3cccc4cccnc34)([O]c3cccc4cccnc34)[O]c3cccc4cccnc34)cccc2c1 [^89Zr-oxine complex] | capable of presenting the antigen and inducing T cell activation and proliferation as well as non-labeled DCs | slightly increased expression | retained the capacity to proliferate and differentiate normally into mature cells | at similar levels to non-labeled controls | did not negatively affect | at the similar levels | similarly to the non-labeled controls | slight proliferation after day 4 | slightly decreased in number | approximately 50% |  |
| c1cc(CN2CCCNCCNCCCNCC2)ccc1CN1CCCNCCNCCCNCC1 [plerixafor] |  |  |  |  |  |  |  |  |  |  | significantly inhibited |
